Results taken from US9321735B2, “Insecticidal triazines and pyrimidines” (Vestaron Corporation, priority 2010, dated 2016).

Test system: beet army worm (Spodoptera exigua)
Assay: Insecticidal test for beet armyworm (diet surface treatment, larval mortality)
Format: in vivo
Conditions: 100 μg/cm^2 on diet surface; first instar larvae, 32 insects per treatment; observations 24, 48 and 96 hours after treatment
Description: The compounds identified in Table 8 were prepared according to the previous methods and were tested against beet armyworm and corn earworm as follows:
Insecticidal Test for Beet Armyworm (Spodoptera Exigua).
To prepare the test solution, the test compound was Formulated at 3499 ppm in solution as 5 mg compound/1.429 mL of 9 parts acetone: 1 part deionized H2O and vortexed to homogenize. 50 μL of the 3499 ppm (equivalent to 100 μg/cm^2 dose on diet surface area) test solution was pipetted upon the surface of 1 mL of solidified cool Southland Products Incorporated Beet Armyworm Diet (201 Stuart Island Road Lake Village, Ark. 71653) using an Eppendorf Repeater Plus with a 1 mL pipette tip. All pipetting of treatments was done in a Labconco Hood. Thirty minutes were allowed for the acetone to evaporate leaving a dose of 100 μg/cm^2 on the surface of the artificial diet. Two 24 hour old first instar Beet Armyworm(Spodoptera Exigua) larvae were placed in each well of the 128 well Bio-BA 128 Bioassay trays (CD International, Pitman, N.J., 08071, USA) using a #0 fine camel hair paint brush. Bioassay trays were sectioned into treatment groups of 8 with 16 replicates per treatment group (32 insects per treatment). […] The number of insects dead were counted out of the 32 insects total per treatment and the results are given in a table as a percent mortality at a dose of 100 μg/cm^2. […]

For Fc1cccc(Cl)c1-c1nc(NN=Cc2ccc(C(F)(F)F)cc2)nc(Nc2ccc(Cl)nc2)n1 [Example 51, 4-(2-chloro-6-fluorophenyl)-N-(6-chloropyridin-3-yl)-6-(2-(4-(trifluoromethyl)benzylidene)hydrazinyl)-1,3,5-triazin-2-amine], the Mortality was “A (A=76-100% mortality)”.
